Assay results: PubChem BioAssay AID2060901 (Molecular Pharmacology Branch, DTP, NCI, 2025)

Tested on: 422866-222-R5-J1-PDC complex spheroids viability
Experiment: Anticancer human tumor 422866-222-R5-J1-PDC patient-derived pancreatic adenocarcinoma cell line growth inhibition [RAS]
Details: for IC50: curve of first compound; for viability, T/C: stronger effect = lower value
In short: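 Tumour cells grown as complex spheroids with HUVEC endothelial cells and mesenchymal stem cells, treated with RAS pathway inhibitor combinations. Each agent spans half-log steps from near clinical Cmax, or 10 microM where Cmax is unknown.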

[1] = second compound 0.000949 µM, first compound 0.00316 µM
[2] = second compound 0.000949 µM, first compound 0.01 µM
[3] = second compound 0.000949 µM, first compound 0.0316 µM
[4] = second compound 0.000949 µM, first compound 0.1 µM
[5] = second compound 0.003 µM, first compound 0.00316 µM
[6] = second compound 0.003 µM, first compound 0.01 µM
[7] = second compound 0.003 µM, first compound 0.0316 µM
[8] = second compound 0.003 µM, first compound 0.1 µM
[9] = second compound 0.00949 µM, first compound 0.00316 µM
[10] = second compound 0.00949 µM, first compound 0.01 µM
[11] = second compound 0.00949 µM, first compound 0.0316 µM
[12] = second compound 0.00949 µM, first compound 0.1 µM
[13] = second compound 0.03 µM, first compound 0.00316 µM
[14] = second compound 0.03 µM, first compound 0.01 µM
[15] = second compound 0.03 µM, first compound 0.0316 µM
[16] = second compound 0.03 µM, first compound 0.1 µM
[17] = second compound 0.0949 µM, first compound 0.00316 µM
[18] = second compound 0.0949 µM, first compound 0.01 µM
[19] = second compound 0.0949 µM, first compound 0.0316 µM
[20] = second compound 0.0949 µM, first compound 0.1 µM
[21] = second compound 0.3 µM, first compound 0.00316 µM
[22] = second compound 0.3 µM, first compound 0.01 µM
[23] = second compound 0.3 µM, first compound 0.0316 µM
[24] = second compound 0.3 µM, first compound 0.1 µM
[25] = second compound 0.000949 µM, first compound 0.316 µM
[26] = second compound 0.000949 µM, first compound 1 µM
[27] = second compound 0.000949 µM, first compound 3.16 µM
[28] = second compound 0.000949 µM, first compound 10 µM
[29] = second compound 0.003 µM, first compound 0.316 µM
[30] = second compound 0.003 µM, first compound 1 µM
[31] = second compound 0.003 µM, first compound 3.16 µM
[32] = second compound 0.003 µM, first compound 10 µM
[33] = second compound 0.00949 µM, first compound 0.316 µM
[34] = second compound 0.00949 µM, first compound 1 µM
[35] = second compound 0.00949 µM, first compound 3.16 µM
[36] = second compound 0.00949 µM, first compound 10 µM
[37] = second compound 0.03 µM, first compound 0.316 µM
[38] = second compound 0.03 µM, first compound 1 µM
[39] = second compound 0.03 µM, first compound 3.16 µM
[40] = second compound 0.03 µM, first compound 10 µM
[41] = second compound 0.0949 µM, first compound 0.316 µM
[42] = second compound 0.0949 µM, first compound 1 µM
[43] = second compound 0.0949 µM, first compound 3.16 µM
[44] = second compound 0.0949 µM, first compound 10 µM
[45] = second compound 0.3 µM, first compound 0.316 µM
[46] = second compound 0.3 µM, first compound 1 µM
[47] = second compound 0.3 µM, first compound 3.16 µM
[48] = second compound 0.3 µM, first compound 10 µM
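Also: spheroids exposed to compounds for 7 days.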
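For viability, T/C in this document: 100% = DMSO vehicle control viability.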

Work on `CC(C)n1nc(-c2ccc3oc(N)nc3c2)c2c(N)ncnc21` + CCn1c(-c2cc(N3CCN(C)CC3)cnc2C(C)OC)c2c3cc(ccc31)-c1csc(n1)CC(NC(=O)C1CC1C)C(=O)N1CCCC(N1)C(=O)OCC(C)(C)C2 yielded an IC50 (second compound 0.000949 µM) of under 0.316 nM, an IC50 (second compound 0.003 µM) of under 0.316 nM and an IC50 (second compound 0.00949 µM) of under 0.316 nM. The IC50 (second compound 0.03 µM) was under 0.316 nM, the IC50 (second compound 0.0949 µM) was under 0.316 nM and the IC50 (second compound 0.3 µM) was under 0.316 nM. It also gave a viability, T/C (second compound 0.000949 µM, first compound 0.000316 µM) of 35.2%, a viability, T/C (second compound 0.000949 µM, first compound 0.001 µM) of 28.7% and a viability, T/C [1] of 24.4%. For the same compound, the viability, T/C [2] was 24.5%, the viability, T/C [3] was 19.7% and the viability, T/C [4] was 21%. The viability, T/C (second compound 0.003 µM, first compound 0.000316 µM) was 24.4%, the viability, T/C (second compound 0.003 µM, first compound 0.001 µM) was 22.4% and the viability, T/C [5] was 19.5%. It also gave a viability, T/C [6] of 17%, a viability, T/C [7] of 14.3% and a viability, T/C [8] of 14.4%. For the same compound, the viability, T/C (second compound 0.00949 µM, first compound 0.000316 µM) was 22.5%, the viability, T/C (second compound 0.00949 µM, first compound 0.001 µM) was 16.5% and the viability, T/C [9] was 17.8%. It also gave a viability, T/C [10] of 14.2%, a viability, T/C [11] of 13.8% and a viability, T/C [12] of 11.2%. It also gave a viability, T/C (second compound 0.03 µM, first compound 0.000316 µM) of 19.3%, a viability, T/C (second compound 0.03 µM, first compound 0.001 µM) of 16.1% and a viability, T/C [13] of 19.1%. For the same compound, the viability, T/C [14] was 15.7%, the viability, T/C [15] was 11.6% and the viability, T/C [16] was 8.47%. For the same compound, the viability, T/C (second compound 0.0949 µM, first compound 0.000316 µM) was 17.7%, the viability, T/C (second compound 0.0949 µM, first compound 0.001 µM) was 20.1% and the viability, T/C [17] was 18.3%. It also gave a viability, T/C [18] of 14.2%, a viability, T/C [19] of 12.2% and a viability, T/C [20] of 10.9%. It also gave a viability, T/C (second compound 0.3 µM, first compound 0.000316 µM) of 19.7%, a viability, T/C (second compound 0.3 µM, first compound 0.001 µM) of 21.3% and a viability, T/C [21] of 20.5%. For the same compound, the viability, T/C [22] was 16.4%, the viability, T/C [23] was 14.5% and the viability, T/C [24] was 10.9%.
In the case of `CC1(O)CCCC1n1c(=O)c(C(F)F)cc2cnc(NC3CCN(S(C)(=O)=O)CC3)nc21` (stereo not drawn) + CCn1c(-c2cc(N3CCN(C)CC3)cnc2C(C)OC)c2c3cc(ccc31)-c1csc(n1)CC(NC(=O)C1CC1C)C(=O)N1CCCC(N1)C(=O)OCC(C)(C)C2, the IC50 (second compound 0.000949 µM) is reported as under 31.6 nM, the IC50 (second compound 0.003 µM) is reported as under 31.6 nM and the IC50 (second compound 0.00949 µM) is reported as under 31.6 nM. It also gave an IC50 (second compound 0.03 µM) of under 31.6 nM, an IC50 (second compound 0.0949 µM) of under 31.6 nM and an IC50 (second compound 0.3 µM) of under 31.6 nM. For the same compound, the viability, T/C [3] was 30%, the viability, T/C [4] was 30.3% and the viability, T/C [25] was 34.5%. For the same compound, the viability, T/C [26] was 34%, the viability, T/C [27] was 38% and the viability, T/C [28] was 40.2%. The viability, T/C [7] was 27.9%, the viability, T/C [8] was 25.8% and the viability, T/C [29] was 26.4%. For the same compound, the viability, T/C [30] was 30.1%, the viability, T/C [31] was 32.5% and the viability, T/C [32] was 49.2%. It also gave a viability, T/C [11] of 23%, a viability, T/C [12] of 20.7% and a viability, T/C [33] of 22.4%. For the same compound, the viability, T/C [34] was 23.3%, the viability, T/C [35] was 26% and the viability, T/C [36] was 28.8%. It also gave a viability, T/C [15] of 18.8%, a viability, T/C [16] of 19.8% and a viability, T/C [37] of 22.8%. It also gave a viability, T/C [38] of 20.4%, a viability, T/C [39] of 29.8% and a viability, T/C [40] of 44.2%. For the same compound, the viability, T/C [19] was 19.3%, the viability, T/C [20] was 22.8% and the viability, T/C [41] was 21.2%. For the same compound, the viability, T/C [42] was 24%, the viability, T/C [43] was 24.9% and the viability, T/C [44] was 47%. It also gave a viability, T/C [23] of 18.9%, a viability, T/C [24] of 21.1% and a viability, T/C [45] of 23.3%. The viability, T/C [46] was 22.4%, the viability, T/C [47] was 29.6% and the viability, T/C [48] was 50.5%.
Work on `CCN1CCN(Cc2ccc(Nc3ncc(F)c(-c4cc(F)c5nc(C)n(C(C)C)c5c4)n3)nc2)CC1` + CCn1c(-c2cc(N3CCN(C)CC3)cnc2C(C)OC)c2c3cc(ccc31)-c1csc(n1)CC(NC(=O)C1CC1C)C(=O)N1CCCC(N1)C(=O)OCC(C)(C)C2 yielded an IC50 (second compound 0.000949 µM) of under 3.16 nM, an IC50 (second compound 0.003 µM) of under 3.16 nM and an IC50 (second compound 0.00949 µM) of under 3.16 nM. For the same compound, the IC50 (second compound 0.03 µM) was under 3.16 nM, the IC50 (second compound 0.0949 µM) was under 3.16 nM and the IC50 (second compound 0.3 µM) was under 3.16 nM. For the same compound, the viability, T/C [1] was 34.5%, the viability, T/C [2] was 29.8% and the viability, T/C [3] was 26.8%. It also gave a viability, T/C [4] of 29.4%, a viability, T/C [25] of 29.5% and a viability, T/C [26] of 43.6%. For the same compound, the viability, T/C [5] was 25.6%, the viability, T/C [6] was 21.5% and the viability, T/C [7] was 21.9%. The viability, T/C [8] was 22.6%, the viability, T/C [29] was 25% and the viability, T/C [30] was 34.7%. The viability, T/C [9] was 18.7%, the viability, T/C [10] was 17.4% and the viability, T/C [11] was 18.3%. It also gave a viability, T/C [12] of 16.3%, a viability, T/C [33] of 23.1% and a viability, T/C [34] of 28.6%. It also gave a viability, T/C [13] of 18.9%, a viability, T/C [14] of 22.9% and a viability, T/C [15] of 17.6%. For the same compound, the viability, T/C [16] was 17.3%, the viability, T/C [37] was 21.8% and the viability, T/C [38] was 31.1%. The viability, T/C [17] was 19.7%, the viability, T/C [18] was 18.4% and the viability, T/C [19] was 18.8%. For the same compound, the viability, T/C [20] was 17.9%, the viability, T/C [41] was 24.5% and the viability, T/C [42] was 31.4%. It also gave a viability, T/C [21] of 17.9%, a viability, T/C [22] of 19.8% and a viability, T/C [23] of 20.9%. The viability, T/C [24] was 19.1%, the viability, T/C [45] was 25.9% and the viability, T/C [46] was 33.5%.
`C[C@@H](NC(=O)c1ncnc(N)c1Cl)c1ncc(C(=O)Nc2cc(C(F)(F)F)c(Cl)cn2)s1` + CCn1c(-c2cc(N3CCN(C)CC3)cnc2C(C)OC)c2c3cc(ccc31)-c1csc(n1)CC(NC(=O)C1CC1C)C(=O)N1CCCC(N1)C(=O)OCC(C)(C)C2 gave an IC50 (second compound 0.000949 µM) of under 31.6 nM, an IC50 (second compound 0.003 µM) of under 31.6 nM and an IC50 (second compound 0.00949 µM) of under 31.6 nM. It also gave an IC50 (second compound 0.03 µM) of under 31.6 nM, an IC50 (second compound 0.0949 µM) of under 31.6 nM and an IC50 (second compound 0.3 µM) of under 31.6 nM. For the same compound, the viability, T/C [3] was 33.8%, the viability, T/C [4] was 40.3% and the viability, T/C [25] was 33.5%. The viability, T/C [26] was 36.9%, the viability, T/C [27] was 39.1% and the viability, T/C [28] was 37.2%. It also gave a viability, T/C [7] of 24.8%, a viability, T/C [8] of 26.4% and a viability, T/C [29] of 26.2%. It also gave a viability, T/C [30] of 25.8%, a viability, T/C [31] of 26.1% and a viability, T/C [32] of 30.1%. The viability, T/C [11] was 21%, the viability, T/C [12] was 20.3% and the viability, T/C [33] was 21.1%. It also gave a viability, T/C [34] of 22.2%, a viability, T/C [35] of 24.3% and a viability, T/C [36] of 24.3%. The viability, T/C [15] was 20.4%, the viability, T/C [16] was 19.8% and the viability, T/C [37] was 20.8%. For the same compound, the viability, T/C [38] was 23.8%, the viability, T/C [39] was 24.1% and the viability, T/C [40] was 22.2%. For the same compound, the viability, T/C [19] was 21.3%, the viability, T/C [20] was 20.6% and the viability, T/C [41] was 21.1%. For the same compound, the viability, T/C [42] was 19.9%, the viability, T/C [43] was 23.1% and the viability, T/C [44] was 24.3%. For the same compound, the viability, T/C [23] was 19.5%, the viability, T/C [24] was 20.2% and the viability, T/C [45] was 21.4%. For the same compound, the viability, T/C [46] was 20.9%, the viability, T/C [47] was 22.6% and the viability, T/C [48] was 24.8%.
